According to paper PMC12487594, “Contusive spinal cord injury causes Nav1.8 dysfunction to upregulate small sensory neuron excitability” (The Journal of Physiology, 2025):
Peptide text beside a SMILES is read from it. * marks the point of attachment. Cbz = O=C(OCc1ccccc1)*; Boc = CC(C)(C)OC(=O)*

Biological target: T1, Nav1.8 (Homo sapiens, UniProt Q9Y5Y9)
T1 construct: gene SCN10A
Assay: whole-cell patch clamp of Nav1.[…] + FHF4A in ND7/[…] cells ([…] TTX), […] h pre-incubation; transient current
Assay type: cell-based

T1 sequence (Q9Y5Y9 whole entry, looked up): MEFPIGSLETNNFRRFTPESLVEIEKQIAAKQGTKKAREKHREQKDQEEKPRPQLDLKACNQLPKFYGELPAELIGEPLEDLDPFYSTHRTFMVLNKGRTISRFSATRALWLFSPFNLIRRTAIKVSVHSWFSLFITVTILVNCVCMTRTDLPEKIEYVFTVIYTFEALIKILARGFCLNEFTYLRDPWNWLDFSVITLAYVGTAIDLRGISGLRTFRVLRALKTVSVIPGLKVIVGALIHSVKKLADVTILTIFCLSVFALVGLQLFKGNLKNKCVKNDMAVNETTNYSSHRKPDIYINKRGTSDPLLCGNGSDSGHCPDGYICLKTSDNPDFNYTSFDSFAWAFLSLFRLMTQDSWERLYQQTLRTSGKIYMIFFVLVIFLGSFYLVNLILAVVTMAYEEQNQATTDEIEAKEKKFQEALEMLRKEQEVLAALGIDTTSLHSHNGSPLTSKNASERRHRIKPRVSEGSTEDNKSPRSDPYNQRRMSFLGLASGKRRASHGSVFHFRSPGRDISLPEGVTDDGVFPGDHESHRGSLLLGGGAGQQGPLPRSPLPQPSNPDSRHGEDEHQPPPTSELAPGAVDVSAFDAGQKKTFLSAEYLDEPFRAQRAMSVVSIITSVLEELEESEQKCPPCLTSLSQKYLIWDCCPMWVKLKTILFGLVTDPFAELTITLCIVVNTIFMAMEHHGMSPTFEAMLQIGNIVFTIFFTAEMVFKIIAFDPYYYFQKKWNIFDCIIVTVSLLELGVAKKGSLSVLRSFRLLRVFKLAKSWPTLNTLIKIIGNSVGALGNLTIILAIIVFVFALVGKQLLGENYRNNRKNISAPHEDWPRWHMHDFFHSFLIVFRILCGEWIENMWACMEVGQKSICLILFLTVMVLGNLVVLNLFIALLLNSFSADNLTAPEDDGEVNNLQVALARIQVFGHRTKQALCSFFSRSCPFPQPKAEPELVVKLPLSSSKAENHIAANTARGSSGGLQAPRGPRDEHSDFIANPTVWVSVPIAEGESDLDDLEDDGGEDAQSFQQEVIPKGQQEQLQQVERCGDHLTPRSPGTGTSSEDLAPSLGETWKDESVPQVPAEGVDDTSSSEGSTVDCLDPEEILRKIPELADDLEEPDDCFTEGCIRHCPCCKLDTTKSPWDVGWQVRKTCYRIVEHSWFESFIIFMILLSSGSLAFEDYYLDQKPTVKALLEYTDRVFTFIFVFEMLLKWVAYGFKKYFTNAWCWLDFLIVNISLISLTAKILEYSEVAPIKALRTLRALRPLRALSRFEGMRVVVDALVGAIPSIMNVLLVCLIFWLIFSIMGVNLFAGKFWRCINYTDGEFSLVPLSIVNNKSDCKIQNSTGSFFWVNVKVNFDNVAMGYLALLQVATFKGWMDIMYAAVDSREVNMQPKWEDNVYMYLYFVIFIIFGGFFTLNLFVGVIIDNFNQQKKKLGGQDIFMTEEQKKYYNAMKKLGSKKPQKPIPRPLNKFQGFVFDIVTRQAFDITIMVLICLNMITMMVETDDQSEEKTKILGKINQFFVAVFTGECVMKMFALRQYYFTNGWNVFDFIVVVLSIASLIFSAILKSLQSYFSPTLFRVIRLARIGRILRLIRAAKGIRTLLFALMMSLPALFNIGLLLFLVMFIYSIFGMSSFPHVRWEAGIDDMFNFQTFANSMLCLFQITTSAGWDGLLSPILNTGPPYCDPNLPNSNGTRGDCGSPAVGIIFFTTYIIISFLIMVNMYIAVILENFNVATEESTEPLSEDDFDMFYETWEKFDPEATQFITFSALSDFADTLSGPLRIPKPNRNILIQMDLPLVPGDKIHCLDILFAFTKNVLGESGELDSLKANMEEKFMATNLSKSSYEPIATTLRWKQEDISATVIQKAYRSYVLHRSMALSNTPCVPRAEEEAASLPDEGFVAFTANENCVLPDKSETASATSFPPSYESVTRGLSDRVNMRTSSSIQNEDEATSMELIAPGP

Compound: CC(C)C[C@H](NC(=O)[C@H](Cc1ccccc1)NC(=O)OCc1ccccc1)C(=O)N1CCC[C@H]1C(=O)N[C@@H](CCCCNC(=O)OC(C)(C)C)C(N)=O [ZL0177] (Cbz-FLPK(Boc)-NH2)
- IC50: ~19.5 µM
